Article PMC5522071, “Preclinical development of G1T38: A novel, potent and selective inhibitor of cyclin dependent kinases 4/6 for use as an oral antineoplastic in patients with CDK4/6 sensitive tumors” (Oncotarget, 2017)

Columns and labels:
in vivo [1] = experiment: in vivo
Method: (§1) Supplementary Table 2: Elimination Half-Lives of G1T38
(§2) T1/2 (hrs) Mouse Rat Dog Human
(§3) Elimination half-lives (T1/2) were determined for G1T38 (in-house results and calculated as part of NCT02821624) and
(§4) In lower order species, mice and rats, values are similar between both compounds, however in dogs and […]

CDK2/Cyclin A = CDK2/Cyclin A (Homo sapiens, UniProt P24941); conditions: read-out: IC50 CDK2/Cyclin A, Mean; 12-point dose response, singlicate, at Km for ATP
Method: The assays were completed using microfluidic kinase detection technology (Caliper Assay Platform). The compounds were tested in 12-point dose response format in singlicate at the Km for ATP. Phosphoacceptor substrate peptide concentration used was 1 μM and Staurosporine was used as the reference compound for all assays.

neutrophils = experiment: GLP 28-day toxicology study, CBC; assay type: in vivo, beagle dogs; conditions: 1, 2.5 and 5 mg/kg/day
Method: However, from 14 to 25 days, cells reached a steady state level, which was readily reversible once dosing was stopped (Figure 5E).
Beagle dogs (5/ sex) were dosed once daily for 28 consecutive days via oral gavage. The dose levels were 1, 2.5 and 5 mg/kg/day and administered at a dose volume of 5 mL/kg. Hematology samples (1ml/ time point) were collected in K3EDTA tubes twice pre-test and then on days 7, 14, 21, and 25 during the dosing period and on days 35, and 42 during the recovery period. Complete blood counts were performed and results reported. All studies were conducted utilizing methods and protocols in accordance with IACUC approval at MPI Research (Mattawan, MI).

in vivo [2] = conditions: po, 100 mg/kg
Method: To evaluate the murine PK/PD relationship of G1T38, an ER^+ MCF7 xenograft model was utilized. Compound concentrations were measured in plasma and tumors from tumor-bearing mice given a single oral dose of G1T38 (100 mg/kg). […] To assess the effects of G1T38 on pRB, tumors were harvested and pRB was analyzed by immunoblotting.

H1975 xenograft = experiment: H1975 NSCLC xenograft model; assay type: in vivo, mice; conditions: for TGI: single agent, by 18 days of treatment
Excerpt: To evaluate the efficacy of G1T38 in combination with EGFR inhibitors, the H1975 xenograft model was utilized. H1975 is a human NSCLC that harbors the […] mutations rendering resistance to erlotinib treatment.
Afatinib is an irreversible second generation pan-ErbB inhibitor developed as a first-line treatment of patients with metastatic NSCLC whose tumors harbor EGFR mutations or deletions as well as in patients with metastatic disease that progressed after platinum-based chemotherapy.
Female NCI Ath/nu mice were implanted with H1975 NSC lung adenocarcinoma model. Once tumors reached an average size of 100- 150 mm^3, mice were randomized into treatment cohorts. Mice were orally administered daily afatinib (20 mg/kg, Genentech/OSI), erlotinib (70 mg/kg, LC Labs), or G1T38 (50 or 100 mg/kg), as single agents or in combination (G1T38 + erlotinib or G1T38 + afatinib) for the duration of the study. Tumors were measured twice weekly until mice reached tumor burden of 1500 mm^3.

[3] = tested on: CDK4/6-independent cell lines; experiment: Cell proliferation, CellTiter-Glo, statement for the group; assay type: cell-based; conditions: read-out: inhibition of proliferation in CDK4/6-independent cell lines
Method: (§5) To assess the capacity of G1T38 to inhibit proliferation of tumor cell lines, a broad panel of CDK4/6 dependent and independent lines was evaluated using CellTiter Glo (Table 2).
(§6) SupT1, Daudi, MCF7, ZR-75-1, A2058, WM2664, and H69 cells were seeded at 1000 cells per well; MV-4-11 and BV173 cells were plated at 4000 cells per well; Tom-1 cells were plated at 8,000 cells per well; NALM-1 cells were plated at 20,000 cells per well in Costar 3903 96 well plates. After 24 hours, plates were dosed with G1T38 at a nine-point dose concentration from 10 μM to 1 nM. Cell viability was determined after four or six days using the CellTiter-Glo® assay (Promega; Madison, WI) following manufacturer's recommendations. Plates were processed on BioTek (Winooski, VT) Synergy2 multi-mode plate reader and data analyzed using GraphPad (San Diego, CA) Prism 5 statistical software.

[4] = Accumulation potential in plasma, 28-day repeat dose; conditions: Rat, 28-day daily oral treatment
NALM1 = experiment: Cell proliferation, CellTiter-Glo; assay type: cell-based; conditions: 144 h; NALM1, Leukemia, RB -; four or six days; read-out: G1T38 EC50, growth inhibition
Method: as §5, §6

MV4-11 = experiment: Cell proliferation, CellTiter-Glo; assay type: cell-based; conditions: Homo sapiens, 144 h; MV4-11, B cell leukemia, RB +; four or six days; read-out: G1T38 EC50, growth inhibition
Method: as §5, §6

Tom1 = experiment: Cell proliferation, CellTiter-Glo; assay type: cell-based; conditions: 144 h; Tom1, Ph1+ leukemia, RB +; four or six days; read-out: G1T38 EC50, growth inhibition
Method: as §5, §6

SupT1 = experiment: Cell proliferation, CellTiter-Glo; assay type: cell-based; conditions: Homo sapiens, SUP-T1, 144 h; SupT1, Lymphoma, RB +; four or six days; read-out: G1T38 EC50, growth inhibition
Method: as §5, §6

ZR-75-1 = experiment: Cell proliferation, CellTiter-Glo; assay type: cell-based; conditions: Homo sapiens, 144 h; ZR-75-1, ER+ breast cancer, RB +; four or six days; read-out: G1T38 EC50, growth inhibition
Method: as §5, §6

JAK2 = JAK2 (Homo sapiens, UniProt O60674); experiment: JAK2 inhibition; assay type: biochemical
Elimination half-life = conditions: in vivo
Method: as §1, §2, §3, §4

MCF7 murine tumors = experiment: Plasma exposure versus % TGI, nonlinear regression; assay type: in vivo, mice; conditions: AUC 0-last single dose vs TGI, MCF7, 28 days

Chain of JAK2 (O60674 whole entry, species assumed): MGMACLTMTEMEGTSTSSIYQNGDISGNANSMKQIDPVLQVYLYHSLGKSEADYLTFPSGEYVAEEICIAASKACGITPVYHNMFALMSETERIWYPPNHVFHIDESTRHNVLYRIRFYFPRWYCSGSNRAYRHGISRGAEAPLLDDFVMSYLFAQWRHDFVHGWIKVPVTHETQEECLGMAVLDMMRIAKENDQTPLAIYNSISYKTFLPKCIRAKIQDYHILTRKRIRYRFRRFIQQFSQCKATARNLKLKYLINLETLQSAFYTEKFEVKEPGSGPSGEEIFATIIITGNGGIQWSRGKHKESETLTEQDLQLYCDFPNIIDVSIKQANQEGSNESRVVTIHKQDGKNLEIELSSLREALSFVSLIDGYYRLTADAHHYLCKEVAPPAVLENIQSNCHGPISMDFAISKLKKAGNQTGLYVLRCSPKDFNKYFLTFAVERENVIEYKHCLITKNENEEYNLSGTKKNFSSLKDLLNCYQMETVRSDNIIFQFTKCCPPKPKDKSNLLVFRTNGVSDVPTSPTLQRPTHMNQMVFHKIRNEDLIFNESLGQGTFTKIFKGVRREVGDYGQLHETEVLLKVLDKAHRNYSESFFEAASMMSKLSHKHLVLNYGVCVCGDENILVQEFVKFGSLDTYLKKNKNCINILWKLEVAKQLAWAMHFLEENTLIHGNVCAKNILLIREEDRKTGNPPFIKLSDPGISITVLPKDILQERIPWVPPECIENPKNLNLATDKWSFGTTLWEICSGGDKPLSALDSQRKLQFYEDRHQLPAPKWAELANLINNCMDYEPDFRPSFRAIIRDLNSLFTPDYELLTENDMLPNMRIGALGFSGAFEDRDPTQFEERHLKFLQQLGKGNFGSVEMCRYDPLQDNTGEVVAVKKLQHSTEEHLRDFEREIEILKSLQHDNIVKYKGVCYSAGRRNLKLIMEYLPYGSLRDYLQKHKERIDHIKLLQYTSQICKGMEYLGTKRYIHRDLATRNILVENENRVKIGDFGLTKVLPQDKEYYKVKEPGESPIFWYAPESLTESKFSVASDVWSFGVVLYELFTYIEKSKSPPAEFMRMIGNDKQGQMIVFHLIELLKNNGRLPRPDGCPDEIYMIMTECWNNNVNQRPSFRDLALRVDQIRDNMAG

Work on `CC(C)N1CCN(c2ccc(Nc3ncc4cc5n(c4n3)C3(CCCCC3)CNC5=O)nc2)CC1.Cl.Cl` [G1T38, 2′-((5-(4-isopropylpiperazin-1-yl)pyridin-2-yl)amino)-7′, 8′dihydro-6′Hspiro[cyclohexane1,9′ pyrazino[1′,2′:1,5]pyrrolo[2,3-d]pyrimidin]-6′-one di-hydrochloride] yielded a half-life (in vivo [1]; dog) of 10.5 to 14.7 h, a half-life (in vivo [1]; mouse) of 2.4 to 5.1 h and an IC50 (CDK2/Cyclin A) of 1500 nM. The “neutrophil course during 28 days daily oral treatment” value (neutrophils) was “neutrophils decreased rapidly in a dose dependent manner during the first 14 days”, the Kp (in vivo [2]; C57BL/6, mouse) was 17 and the Kp at 24 h (in vivo [2]; C57BL/6, mouse) was over 100. The concentration at 48 h (in vivo [2]; C57BL/6, mouse) was about 65 ng/mL, the “drug in the plasma” value (in vivo [2]; mouse) was “no drug was detectable” and the “TGI compared to vehicle, combination with erlotinib” value (H1975 xenograft; 100 mg/kg G1T38 combined with 70 mg/kg erlotinib for 18 days) was 80%. For the same molecule, the “resistance during treatment, combination with afatinib” value (H1975 xenograft; G1T38 50 or 100 mg/kg + afatinib 20 mg/kg, 18 days) was “did not develop resistance”, the “effect on erlotinib resistance” value (H1975 xenograft; G1T38 at any dose combined with 70 mg/kg erlotinib) was “the resistance to the erlotinib was reversed” and the TGI (H1975 xenograft; 50 mg/kg daily oral) was 33.3%. The TGI (H1975 xenograft; 100 mg/kg daily oral) was 60.7%, the EC50 [3] was over 2500 nM and the “Mean Accumulation Ratio (AUC0-24hr Day 28 ÷ Day 1)” value (“Mean Accumulation Ratio” for short) ([4]; 2.5 mg/kg) was 0.939. The “Mean Accumulation Ratio” value ([4]; 5 mg/kg) was 0.958, the “Mean Accumulation Ratio” value ([4]; 15 mg/kg) was 1.22 and the EC50 (NALM1) was over 10000 nM. It also gave an EC50 (MV4-11) of 23 nM, an EC50 (Tom1) of 232 nM and an EC50 (SupT1) of 57 nM. It also gave an EC50 (ZR-75-1) of 61 nM, an IC50 (JAK2) of over 500 nM and a half-life (Elimination half-life; Human, calculated as part of NCT02821624) of 15 h. The half-life (Elimination half-life; rat) was 3.1 h and the “EC50 (plasma exposure vs % TGI) lower than palbociclib” value (MCF7 murine tumors) was 3.8 fold.
